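Grown in 96-well plates, cells were treated for 48 hours with each compound at five concentrations. Insufficient inhibition: endpoint recorded as highest concentration tested. Here, GI50 denotes the concentration required for 50% inhibition of growth. TGI: concentration producing complete growth inhibition.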
How the values were obtained:
Assay in all cases: DTP human tumour cell line panel, 48 h
[1] = tested on: ACHN renal
[2] = tested on: CCRF-CEM leukemia
[3] = tested on: HCC-2998 colon
[4] = tested on: HOP-92 NSCLC
[5] = tested on: LOX IMVI melanoma
[6] = tested on: NCI-H23 lung
[7] = tested on: NCI-H522 lung
[8] = tested on: OVCAR-8 ovarian
[9] = tested on: SF-539 CNS
[10] = tested on: SN12C renal

Compound | TGI [1] [µM] | TGI [2] [µM] | TGI [3] [µM] | TGI [4] [µM] | TGI [5] [µM] | TGI [6] [µM] | TGI [7] [µM] | TGI [8] [µM] | TGI [9] [µM] | TGI [10] [µM] | GI50 [1] [µM] | GI50 [2] [µM] | GI50 [3] [µM] | GI50 [4] [µM] | GI50 [5] [µM] | GI50 [6] [µM] | GI50 [7] [µM] | GI50 [8] [µM] | GI50 [9] [µM] | GI50 [10] [µM]
Cc1c(N=Nc2ccc([N+](=O)[O-])cc2)nc2scc(-c3ccccc3)n12 | > 100 | > 73.4 | > 100 | > 100 | > 100 | > 100 | > 100 | > 100 | > 100 | > 100 | – | – | – | – | – | – | – | – | – | –
CCCCn1c2cc(OCc3cn(-c4ccc(Cl)cc4)nn3)ccc2c2ccnc(C)c21 | 10.3 | > 33.3 | 30.4 | 16.3 | 12.3 | 26.6 | 13.3 | 23.9 | 10.3 | > 33.3 | 5.06 | 9.27 | 9.58 | 4.22 | 5.91 | 7.23 | 4.72 | 6.42 | 5.11 | 8.16
CN(C)CCCn1c2c(c3cnccc3c1=O)C(=O)c1ccccc1-2 | 3.63 | 2.87 | 2.6 | 2.68 | 4.18 | 3.73 | 7.24 | 44.1 | 2.9 | 4.35 | 0.145 | 0.318 | 0.777 | 0.203 | 0.303 | 0.55 | 0.312 | 0.313 | 0.377 | 0.289
COc1ccc(/C=N/N=C(\N)NO)cc1OC | > 100 | > 100 | > 100 | > 100 | > 100 | > 100 | 79.9 | > 100 | 64.9 | > 100 | – | – | – | – | – | – | – | – | – | –
C(=N\Nc1ccccn1)/c1ccccn1 | – | > 100 | 97.3 | > 82.7 | > 100 | > 100 | > 100 | > 100 | 2.31 | > 100 | 0.294 | 0.446 | 0.272 | – | 0.319 | 0.503 | 0.71 | 0.411 | 0.333 | 0.443
CCCCCCCCCC(=O)CC(=O)c1ccc(O)cc1O | 89.3 | > 100 | 46.3 | 79.4 | 38.7 | 59.8 | 48.2 | 67.9 | 96.5 | 74.4 | – | – | – | – | – | – | – | – | – | –
Cc1cccc(C(C)(C)C)c1NC(=O)C(=O)C(C(=O)/C=C\c1ccccc1)C1OC(=O)c2ccccc21 (stereo not drawn) | > 100 | > 100 | > 100 | > 100 | > 100 | > 100 | > 100 | > 100 | > 100 | > 100 | – | – | – | – | – | – | – | – | – | –
[N-]=[N+]=NC(c1cn(C2CC(O)C(CO)O2)c(=O)[nH]c1=O)C(Br)I (stereo not drawn) | > 100 | > 100 | > 100 | > 100 | > 100 | > 100 | > 100 | > 100 | > 100 | > 100 | – | – | – | – | – | – | – | – | – | –
Clc1ccc(-n2nnc(C3=NCCN3)c2-c2ccccc2)cc1 | > 100 | > 100 | > 100 | > 100 | > 100 | > 100 | > 100 | > 100 | > 100 | > 100 | – | – | – | – | – | – | – | – | – | –
COP(=O)(OC)C(NC(c1ccccc1)c1ccccc1)c1ccc2c(c1)OCO2 (stereo not drawn) | > 100 | 29.7 | > 100 | 26.3 | 31.4 | 88.3 | 70 | > 100 | 36 | 53.8 | 29.1 | 2.26 | 33.5 | 12 | 16.4 | 31.5 | 24.5 | 35.2 | 20.2 | 24
COC(=O)C(CCS(=O)(=O)CC(=O)C(=O)Nc1cccc(C(C)=O)c1)C(=O)OC | > 100 | > 65.5 | > 100 | > 100 | > 100 | > 100 | > 100 | > 100 | > 100 | > 100 | – | – | – | – | – | – | – | – | – | –
Cc1ccc2c(c1)nc(C(=O)c1ccco1)c(C(F)(F)F)[n+]2[O-] | > 100 | > 100 | > 100 | > 100 | > 100 | > 100 | > 100 | > 100 | > 100 | > 100 | > 100 | > 100 | > 100 | 40.1 | > 100 | 91.8 | 66.7 | > 100 | > 100 | > 100
COc1ccc(-n2c(SCc3cc(OC)c(OC)c(OC)c3)nc3ccc(C)cc3c2=O)c(OC)c1 | > 100 | 6.69 | > 100 | > 100 | > 100 | > 100 | 72.7 | > 100 | 7.82 | > 100 | 7.49 | 2.38 | 6.75 | 2.58 | 5.23 | 5.24 | 3.58 | 5.14 | 2.88 | 5.1
CC12CCC3C(CC=C4CC(O)CCC43C)C1C/C(=C\N1CCCC1)C2=O (stereo not drawn) | > 100 | > 100 | > 100 | 83.7 | > 100 | > 100 | > 100 | > 100 | > 100 | > 100 | 91.8 | 79.3 | > 100 | 4.52 | > 100 | > 100 | > 100 | > 100 | > 100 | 85
O=C(O)c1cc2ccccc2c(O)c1O | 31.8 | > 58.6 | 35.8 | > 54.9 | 14.9 | 22.5 | 28.9 | 27.4 | 38.1 | 31.5 | – | – | – | – | – | – | – | – | – | –
O=c1cccc(C#CC#C[C@H]2O[C@@H]2CO)o1 | 0.985 | 0.431 | 2.19 | 0.531 | 0.901 | 1.21 | > 100 | 1.43 | 2.84 | 0.333 | 0.322 | 0.17 | 0.788 | 0.285 | 0.31 | 0.347 | 3.56 | 0.341 | 1.07 | 0.149

Source: PubChem BioAssay (NCI)
